Activity calls are given as the source filed them. No cut-off for these calls is given here.
System: Vaccinia virus
Test: Antiviral activity against Vaccinia virus-induced cytopathogenicity at 16 ug/mL
Type: functional, organism-based
Conditions: Orthopoxvirus vaccinia

In the case of `Cc1ccc(-n2c(-c3cc(-c4ccc(F)cc4F)ccc3O)n[nH]c2=S)cc1`, the Activity is reported as “Active”.
